According to US7488832B2, “Azolylacylguanidines as β-secretase inhibitors” (Wyeth, priority 2005, dated 2009):
pIC50: −log10 of the molar value. Read-outs that look alike come from different tables or passages of the source.

Target: human BACE1 (Homo sapiens, UniProt P56817)
Assay: Fluorescent kinetic assay, human BACE1 (FRET peptide substrate WABC-6);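 note: fluorescence monitored at excitation 320 nm and emission 420 nm over 30 min, with the substrate cleavage rate taken as the linear slope of the signal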
Assay type: biochemical
Conditions: for IC50: fluorescent kinetic assay, 25 μM substrate WABC-6, pH 4.5, room temperature, read-out: IC50 (μM) BACE 1

Sequence of human BACE1 (P56817 46-501): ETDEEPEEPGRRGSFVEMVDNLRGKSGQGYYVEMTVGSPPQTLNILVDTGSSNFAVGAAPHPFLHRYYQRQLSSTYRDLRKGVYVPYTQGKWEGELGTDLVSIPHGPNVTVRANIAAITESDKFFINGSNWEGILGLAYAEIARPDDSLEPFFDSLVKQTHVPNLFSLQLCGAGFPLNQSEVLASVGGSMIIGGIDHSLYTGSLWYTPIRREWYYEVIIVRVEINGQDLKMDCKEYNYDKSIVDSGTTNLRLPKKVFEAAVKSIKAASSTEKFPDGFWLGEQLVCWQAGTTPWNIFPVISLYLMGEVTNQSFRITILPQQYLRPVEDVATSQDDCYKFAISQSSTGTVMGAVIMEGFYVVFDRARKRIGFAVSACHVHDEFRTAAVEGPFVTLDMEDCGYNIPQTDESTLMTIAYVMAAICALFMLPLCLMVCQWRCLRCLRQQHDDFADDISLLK

| Compound | IC50 | pIC50 |
| --- | --- | --- |
| NC(=NC(=O)Cn1c(-c2ccccc2)ccc1C12CC3CC(CC(C3)C1)C2)NCC1CCCO1 (centres unmarked) [Example 402] | 0.11 to 1 µM | – |
| Cc1ccc(C)c(-c2ccc(-c3ccccc3)n2CC(=O)NC(=N)N)c1 [Example 450] | 0.11 to 1 µM | – |
| N#CCCNC(=O)c1ccc(-c2ccc(-c3ccccc3)n2CC(=O)N=C(N)NCCCO)cc1 [Example 465] | 0.11 to 1 µM | – |
| C=CCCCOc1ccc(-c2ccc(-c3ccccc3Cl)n2CC(=O)NC(=N)NCCCO)cc1 [Example 313] | 0.11 to 1 µM | – |
| CC(C)c1ccc(-c2ccc(-c3ccccc3)n2CC(=O)N=C(N)NCc2ccc(F)c(F)c2F)cc1 [Example 331] | 1.1 to 5 µM | – |
| C=CCN(C)C(=O)c1ccc(-c2ccc(-c3ccccc3)n2CC(=O)N=C(N)NCCCO)cc1 [Example 470] | 0.11 to 1 µM | – |
| N#Cc1ccc(-c2ccc(-c3ccccc3)n2CC(=O)N=C(N)NCc2ccc(F)c(F)c2F)cc1 [Example 330] | 1.1 to 5 µM | – |
| C=CCCCCOc1ccc(-c2ccc(-c3ccccc3Cl)n2CC(=O)N=C(N)NCCCO)cc1 [Example 315] | 0.11 to 1 µM | – |
| CCCCOc1ccc(-c2ccc(-c3ccccc3)n2CC(=O)N=C(N)NCc2ccc(F)c(F)c2F)cc1 [Example 334] | 0.11 to 1 µM | – |
| NC(=NC(=O)Cn1c(-c2ccccc2)ccc1C12CC3CC(CC(C3)C1)C2)NC1CCCCCC1 [Example 417] | 0.11 to 1 µM | – |
| 4-n-propyl-piperidine [Example 185] | 1.1 to 5 µM | – |
| NC(N)=NC(=O)Cn1c(-c2ccccc2)ccc1-c1ccc(NC(=O)COc2ccccc2)cc1 [Example 242] | 1.1 to 5 µM | – |
| CCC(=O)c1ccc(-c2ccc(-c3ccccc3)n2CC(=O)NC(=N)N)cc1 [Example 447] | 1.1 to 5 µM | – |
| CCS(=O)(=O)N/C(N)=N\C(=O)Cn1c(-c2ccccc2)ccc1C12CC3CC(CC(C3)C1)C2 [Example 431, 2-[2-(1-adamantyl)-5-phenyl-1H-pyrrol-1-yl]-N-{(1Z)-amino[(ethyl-sulfonyl)amino]methylene}acetamide] | 0.11 to 1 µM | – |
| N/C(=N\C(=O)Cn1c(-c2ccccc2)ccc1C12CC3CC(CC(C3)C1)C2)NCCCCO [Example 400, 2-[2-(1-Adamantyl)-5-phenyl-1H-pyrrol-1-yl]-N-{(1E)-amino[(4-hydroxybutyl)amino]-methylene}acetamide] | 0.11 to 1 µM | – |
| CCCCOc1ccc(-c2ccc(-c3ccccc3)n2CC(=O)N=C(N)NCCCO)cc1 [Example 324] | 0.11 to 1 µM | – |
| NC(=NC(=O)Cn1c(-c2ccccc2)ccc1C12CC3CC(CC(C3)C1)C2)NCC(F)(F)C(F)(F)F [Example 416] | 0.11 to 1 µM | – |
| CC1CCN(C(=O)c2ccc(-c3ccc(-c4ccccc4)n3CC(=O)N=C(N)N)cc2)CC1 [Example 170] | 1.1 to 5 µM | – |
| N=C(NCCCn1ccnc1)NC(=O)Cn1c(-c2ccccc2)ccc1C12CC3CC(CC(C3)C1)C2 [Example 413] | 1.1 to 5 µM | – |
| N=C(N)NC(=O)Cn1c(-c2ccccc2)ccc1-c1ccccc1C(F)(F)F [Example 452] | 1.1 to 5 µM | – |
| N=C(NCc1cccc(N)c1)NC(=O)Cn1c(-c2ccccc2)ccc1C12CC3CC(CC(C3)C1)C2 [Example 421] | – | 6.00 to 6.96 |
| Cc1cccc(C(=O)Nc2ccc(-c3ccc(-c4ccccc4)n3CC(=O)N=C(N)N)cc2)c1 [Example 236] | 1.1 to 5 µM | – |
| N#CCCCNC(=N)NC(=O)Cn1c(-c2ccccc2)ccc1C1CCCCC1 [Example 474, N-(3-Cyano-propyl)-N′-[2-(2-cyclohexyl-5-phenyl-pyrrol-1-yl)-acetyl]-guanidine] | 1.1 to 5 µM | – |
| C=CCNC(=O)c1ccc(-c2ccc(-c3ccccc3)n2CC(=O)N=C(N)NCCCO)cc1 [Example 463] | 0.11 to 1 µM | – |

| Compound | IC50 | pIC50 |
| --- | --- | --- |
| C=CCNC(=O)c1ccc(-c2ccc(-c3ccccc3)n2CC(=O)N=C(N)NCc2nnc(C)o2)cc1 [Example 423] | 0.11 to 1 µM | – |
| CCCN/C(N)=N\C(=O)Cn1c(-c2ccccc2)ccc1C12CC3CC(CC(C3)C1)C2 [Example 391] | 0.11 to 1 µM | – |
| CCCCCOc1ccc(-c2ccc(-c3ccccc3Cl)n2CC(=O)/N=C(/N)NCCCO)cc1 [Example 317] | 0.11 to 1 µM | – |
| N#CCCc1ccc(-c2ccc(-c3ccccc3)n2CC(=O)NC(=N)N)cc1 [Example 454] | 1.1 to 5 µM | – |
| CC(=O)c1ccc(Oc2ccc(-c3ccc(-c4ccccc4)n3CC(=O)N=C(N)NCc3ccc(F)c(F)c3F)cc2)cc1 [Example 338] | 1.1 to 5 µM | – |
| NC(=NC(=O)Cn1c(-c2ccccc2)ccc1-c1ccc(C(=O)NCC(F)(F)C(F)(F)F)cc1)NCCCO [Example 472] | 1.1 to 5 µM | – |
| CC(O)CNC(N)=NC(=O)Cn1c(-c2ccccc2)ccc1C12CC3CC(CC(C3)C1)C2 (centres unmarked) [Example 404] | 0.11 to 1 µM | – |
| CC(=O)OCCNC(N)=NC(=O)Cn1c(-c2ccccc2)ccc1C12CC3CC(CC(C3)C1)C2 [Example 394] | 0.11 to 1 µM | – |
| CC(O)CNC(N)=NC(=O)Cn1c(-c2ccccc2)ccc1C12CC3CC(CC(C3)C1)C2 (centres unmarked) [Example 405] | 0.11 to 1 µM | – |
| NC(=NC(=O)Cn1c(-c2ccccc2)ccc1-c1ccc(C(=O)NC2CC2)cc1)NCCCO [Example 462] | 0.11 to 1 µM | – |
| CCC(C)NC(=O)c1ccc(-c2ccc(-c3ccccc3)n2CC(=O)N=C(N)NCCCO)cc1 (centres unmarked) [Example 469] | 0.11 to 1 µM | – |
| NC(=NC(=O)Cn1c(-c2ccccc2)ccc1-c1ccc(-c2ccccc2)cc1)NCCCO [Example 325] | 0.11 to 1 µM | – |
| CCCCCc1ccc(-c2ccc(-c3ccccc3)n2CC(=O)N=C(N)NCCCO)cc1 [Example 323] | 0.11 to 1 µM | – |
| CC(C)Cc1ccc(-c2ccc(-c3ccccc3)n2CC(=O)N=C(N)NCCCO)cc1 [Example 322] | 0.11 to 1 µM | – |
| C=CCNC(=O)c1ccc(-c2ccc(-c3ccccc3)n2CC(=O)N=C(N)NCCc2cccs2)cc1 [Example 425] | 0.11 to 1 µM | – |
| CCCc1ccc(-c2ccc(-c3ccccc3)n2CC(=O)N=C(N)NCCCO)cc1 [Example 320] | 0.11 to 1 µM | – |
| COCCNC(N)=NC(=O)Cn1c(-c2ccccc2)ccc1C12CC3CC(CC(C3)C1)C2 [Example 415] | 0.11 to 1 µM | – |
| CCNC(=O)c1ccc(-c2ccc(-c3ccccc3)n2CC(=O)NC(N)=NCCCO)cc1 [Example 461, N-Ethyl-4-(1-{2-[N′-(3-hydroxy-propyl)-guanidino]-2-oxo-ethyl}-5-phenyl-1H-pyrrol-2-yl)-benzamide] | 0.11 to 1 µM | – |
| NC(N)=NC(=O)Cn1c(-c2ccccc2)ccc1-c1ccc(C(=O)N2CCSC2)cc1 [Example 169] | 1.1 to 5 µM | – |
| CC[C@H](C)COc1ccc(-c2ccc(-c3ccccc3)n2CC(=O)N=C(N)N)cc1 [Example 283] | 1.1 to 5 µM | – |
| NC(=NC(=O)Cn1c(-c2ccccc2)ccc1-c1ccc(Oc2ccccc2)cc1)NCCCO [Example 328] | 0.11 to 1 µM | – |
| NC(=NC(=O)Cn1c(-c2ccccc2)ccc1-c1ccc(C2CCCCC2)cc1)NCc1ccc(F)c(F)c1F [Example 336] | 0.11 to 1 µM | – |
| CC(=O)c1ccc(Oc2ccc(-c3ccc(-c4ccccc4)n3CC(=O)N=C(N)NCCCO)cc2)cc1 [Example 329] | 0.11 to 1 µM | – |
| C=CCNC(=O)c1ccc(-c2ccc(-c3ccccc3)n2CC(=O)N=C(N)NCc2cccc(N)c2)cc1 [Example 426] | 0.11 to 1 µM | – |

| Compound | IC50 | pIC50 |
| --- | --- | --- |
| NC(N)=NC(=O)Cn1c(-c2ccccc2)ccc1-c1ccc(NS(=O)(=O)c2ccc(Cl)s2)cc1 [Example 258] | 1.1 to 5 µM | – |
| N=C(NCC(O)CO)NC(=O)Cn1c(-c2ccccc2)ccc1C12CC3CC(CC(C3)C1)C2 (centres unmarked) [Example 406] | 0.11 to 1 µM | – |
| CCN/C(N)=N\C(=O)Cn1c(-c2ccccc2)ccc1C12CC3CC(CC(C3)C1)C2 [Example 390] | 0.11 to 1 µM | – |
| CCCCCN/C(N)=N\C(=O)Cn1c(-c2ccccc2)ccc1C12CC3CC(CC(C3)C1)C2 [Example 392] | 1.1 to 5 µM | – |
| CCCc1ccc(-c2ccc(-c3ccccc3)n2CC(=O)N=C(N)NCc2ccc(F)c(F)c2F)cc1 [Example 332] | 0.11 to 1 µM | – |
| Cc1ccc(-c2ccc(-c3ccc(Cl)s3)n2CC(=O)N=C(N)N)cc1 [Example 110] | 1.1 to 5 µM | – |
| CCCNC(=O)c1ccc(-c2ccc(-c3ccccc3)n2CC(=O)N=C(N)NCCCO)cc1 [Example 467] | 0.11 to 1 µM | – |
| NC(=NC(=O)Cn1c(-c2ccccc2)ccc1-c1ccc(Oc2ccccc2)cc1)NCc1ccc(F)c(F)c1F [Example 337] | 0.11 to 1 µM | – |
| CCCCc1ccc(-c2ccc(-c3ccccc3)n2CC(=O)N=C(N)NCc2ccc(F)c(F)c2F)cc1 [Example 333] | 0.11 to 1 µM | – |
| NC(=NC(=O)Cn1c(-c2ccc(Oc3ccccc3)cc2)ccc1-c1ccccc1Cl)NCCCO [Example 310] | 0.11 to 1 µM | – |
| N#CCc1cccc(-c2ccc(-c3ccccc3)n2CC(=O)NC(=N)N)c1 [Example 453] | 1.1 to 5 µM | – |
| COc1ccc(OC)c(-c2ccc(-c3ccc(Oc4ccc(C(C)=O)cc4)cc3)n2CC(=O)N=C(N)N)c1 [Example 135] | 0.11 to 1 µM | – |
| N/C(=N/C(=O)Cn1c(-c2ccccc2)ccc1C12CC3CC(CC(C3)C1)C2)NCCO [Example 396, 2-[2-(1-adamantyl)-5-phenyl-1H-pyrrol-1-yl]-N-{(1E)-amino[(2-hydroxyethyl)-amino]methylene}acetamide] | 0.11 to 1 µM | – |
| CC(C)CNC(N)=NC(=O)Cn1c(-c2ccccc2)ccc1C12CC3CC(CC(C3)C1)C2 [Example 407] | 1.1 to 5 µM | – |
| N#CCCCCOc1ccc(-c2ccc(-c3ccccc3Cl)n2CC(=O)N=C(N)NCCCO)cc1 [Example 314] | 0.01 to 0.1 µM | – |
| N#Cc1ccc(-c2ccc(-c3ccccc3)n2CC(=O)N=C(N)NCCCO)cc1 [Example 318] | 1.1 to 5 µM | – |
| N#CCCN/C(N)=N\C(=O)Cn1c(-c2ccccc2)ccc1C12CC3CC(CC(C3)C1)C2 [Example 397] | 0.11 to 1 µM | – |
| CCCCc1ccc(-c2ccc(-c3ccccc3)n2CC(=O)NC(=N)N)cc1 [Example 449] | 0.11 to 1 µM | – |
| COCCNC(=O)c1ccc(-c2ccc(-c3ccccc3)n2CC(=O)N=C(N)NCCCO)cc1 [Example 468] | 0.11 to 1 µM | – |
| CCC[C@H]1CC[C@H](c2ccc(-c3ccccc3)n2CC(=O)/N=C(\N)NCCCC#N)CC1 [Example 473, N-{(1E)-amino[(3-cyanopropyl)amino]methylene}-2-[2-phenyl-5-(trans-4-propylcyclohexyl)-1H-pyrrol-1-yl]acetamide] | 1.1 to 5 µM | – |
| CCOC(=O)CCCNC(N)=NC(=O)Cn1c(-c2ccccc2)ccc1C12CC3CC(CC(C3)C1)C2 [Example 409] | 1.1 to 5 µM | – |
| N#CCCCNC(=N)NC(=O)Cn1c(-c2ccccc2)ccc1C12CC3CC(CC(C3)C1)C2 [Example 393] | 0.11 to 1 µM | – |
| N/C(=N/C(=O)Cn1c(-c2ccccc2)ccc1C12CC3CC(CC(C3)C1)C2)NCCCO [Example 395] | – | 6.00 to 6.96 |
